Experimental data: US8614327B2 (Vertex Pharmaceuticals Incorporated, priority 2004, dated 2013)

Target: T1, ΔF508-CFTR (Homo sapiens, UniProt P13569, DEL508-508)
T1 construct: expressed in transfected cells
Experiment: Membrane potential optical (FRET/VIPR) assay, identification of potentiator compounds
Assay type: cell-based
Settings: Table 3, assay not given; for % Activity: relative efficacy
Procedure, shortened: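 NIH3T3 mouse fibroblasts stably expressing ΔF508-CFTR, temperature-corrected 24 h at 27° C., read on VIPR by FRET between CC2-DMPE and DiSBAC2(3). Potentiators identified in a double-addition format, first adding chloride-free (gluconate) medium with or without compound.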

T1 sequence (P13569 with tags, fused parts or gaps DEL508-508): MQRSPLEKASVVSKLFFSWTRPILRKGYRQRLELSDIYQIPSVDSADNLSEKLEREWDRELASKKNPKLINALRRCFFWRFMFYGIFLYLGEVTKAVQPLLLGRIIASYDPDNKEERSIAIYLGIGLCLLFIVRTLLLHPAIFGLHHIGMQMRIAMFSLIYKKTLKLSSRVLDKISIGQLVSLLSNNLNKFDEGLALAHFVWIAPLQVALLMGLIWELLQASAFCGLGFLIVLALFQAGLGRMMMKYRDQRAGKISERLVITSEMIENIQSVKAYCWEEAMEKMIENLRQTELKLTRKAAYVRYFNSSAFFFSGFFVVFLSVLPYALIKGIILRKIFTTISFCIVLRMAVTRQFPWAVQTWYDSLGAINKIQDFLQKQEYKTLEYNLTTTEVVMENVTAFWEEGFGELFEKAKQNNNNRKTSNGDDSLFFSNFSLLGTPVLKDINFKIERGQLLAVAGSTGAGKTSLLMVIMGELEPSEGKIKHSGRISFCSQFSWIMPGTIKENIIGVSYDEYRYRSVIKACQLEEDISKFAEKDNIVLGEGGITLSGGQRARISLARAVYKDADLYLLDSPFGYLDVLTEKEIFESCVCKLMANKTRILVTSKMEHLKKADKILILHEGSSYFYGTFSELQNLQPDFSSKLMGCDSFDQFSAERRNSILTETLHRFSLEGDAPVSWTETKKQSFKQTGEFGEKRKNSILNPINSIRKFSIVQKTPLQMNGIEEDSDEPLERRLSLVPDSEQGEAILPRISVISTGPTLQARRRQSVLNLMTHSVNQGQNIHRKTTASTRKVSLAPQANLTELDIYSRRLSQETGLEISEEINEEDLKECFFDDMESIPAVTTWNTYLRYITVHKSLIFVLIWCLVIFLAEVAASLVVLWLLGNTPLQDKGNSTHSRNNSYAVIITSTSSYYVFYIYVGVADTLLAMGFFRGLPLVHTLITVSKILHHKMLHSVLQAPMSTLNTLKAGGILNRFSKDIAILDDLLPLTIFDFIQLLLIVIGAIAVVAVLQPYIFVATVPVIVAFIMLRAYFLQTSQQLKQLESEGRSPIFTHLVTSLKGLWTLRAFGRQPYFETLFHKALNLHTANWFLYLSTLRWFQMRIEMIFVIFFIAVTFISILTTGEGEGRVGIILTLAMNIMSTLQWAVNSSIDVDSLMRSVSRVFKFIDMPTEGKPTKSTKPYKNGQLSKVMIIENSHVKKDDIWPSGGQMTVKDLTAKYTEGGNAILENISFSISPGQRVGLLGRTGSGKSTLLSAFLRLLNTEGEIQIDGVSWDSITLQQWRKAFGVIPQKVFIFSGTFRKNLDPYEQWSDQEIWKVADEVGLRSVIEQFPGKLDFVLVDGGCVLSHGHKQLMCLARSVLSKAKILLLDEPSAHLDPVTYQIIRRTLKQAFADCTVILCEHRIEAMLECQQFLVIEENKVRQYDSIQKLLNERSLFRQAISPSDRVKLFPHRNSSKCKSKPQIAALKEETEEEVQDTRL

| % Activity | EC50 [µM] | SMILES |
| --- | --- | --- |
| ++ (between 25% to 100%) | – | O=C(Nc1ccccc1-c1cc(F)cc(F)c1)c1c[nH]c2ccccc2c1=O [Compound 138, N-[2-(3,5-difluorophenyl)phenyl]-4-oxo-1H-quinoline-3-carboxamide] |
| ++ (between 25% to 100%) | – | O=C(Nc1ccccc1-c1ccc(Cl)cc1Cl)c1c[nH]c2ccccc2c1=O [Compound 139, N-[2-(2,4-dichlorophenyl)phenyl]-4-oxo-1H-quinoline-3-carboxamide] |
| ++ (between 25% to 100%) | – | O=C(Nc1ccc(C2CCCCC2)cc1)c1c[nH]c2ccccc2c1=O [Compound 140, N-(4-cyclohexylphenyl)-4-oxo-1H-quinoline-3-carboxamide] |
| ++ (between 25% to 100%) | 10 to 25 | CCOC(=O)Nc1cc(NC(=O)c2c[nH]c3ccccc3c2=O)ccc1C [Compound 141, [2-methyl-5-[(4-oxo-1H-quinolin-3-yl)carbonylamino]phenyl]aminoformic acid ethyl ester] |
| ++ (between 25% to 100%) | < 10 | CCC(C)c1ccccc1NC(=O)c1c[nH]c2ccccc2c1=O (stereo not drawn) [Compound 142, 4-oxo-N-(2-sec-butylphenyl)-1H-quinoline-3-carboxamide] |
| ++ (between 25% to 100%) | < 10 | CC(C)(C)c1cc(F)c(NC(=O)c2c[nH]c3ccccc3c2=O)cc1O [Compound 143, N-(2-fluoro-5-hydroxy-4-tert-butyl-phenyl)-4-oxo-1H-quinoline-3-carboxamide] |
| ++ (between 25% to 100%) | < 10 | O=C(Nc1cccc(O)c1)c1c[nH]c2ccccc2c1=O [Compound 144, N-(3-hydroxyphenyl)-4-oxo-1H-quinoline-3-carboxamide] |
| ++ (between 25% to 100%) | – | CCOC(=O)c1cc(NC(=O)c2c[nH]c3ccccc3c2=O)cc2[nH]ccc12 [Compound 145, 6-[(4-oxo-1H-quinolin-3-yl)carbonylamino]-1H-indole-4-carboxylic acid ethyl ester] |
| + (<25%) | 25 to 60 | O=C(Nc1cccn2ncnc12)c1c[nH]c2ccccc2c1=O [Compound 146, 4-oxo-N-(1,7,9-triazabicyclo[4.3.0]nona-2,4,6,8-tetraen-5-yl)-1H-quinoline-3-carboxamide] |
| ++ (between 25% to 100%) | < 10 | O=C(Nc1cccnc1Oc1ccc(F)cc1)c1c[nH]c2ccccc2c1=O [Compound 147, N-[2-(4-fluorophenoxy)-3-pyridyl]-4-oxo-1H-quinoline-3-carboxamide] |
| ++ (between 25% to 100%) | < 10 | O=C(Nc1cc2[nH]ccc2cc1C(=O)N1CCCCC1)c1c[nH]c2ccccc2c1=O [Compound 148, 4-oxo-N-[5-(1-piperidylcarbonyl)-1H-indol-6-yl]-1H-quinoline-3-carboxamide] |
| ++ (between 25% to 100%) | 10 to 25 | CCc1ccc(NC(=O)c2c[nH]c3ccccc3c2=O)cc1NC(C)=O [Compound 149, N-(3-acetylamino-4-ethyl-phenyl)-4-oxo-1H-quinoline-3-carboxamide] |
| ++ (between 25% to 100%) | < 10 | O=C(Nc1ccc(C(O)(C(F)(F)F)C(F)(F)F)cc1)c1c[nH]c2ccccc2c1=O [Compound 150, 4-oxo-N-[4-[2,2,2-trifluoro-1-hydroxy-1-(trifluoromethyl)ethyl]phenyl]-1H-quinoline-3-carboxamide] |
| ++ (between 25% to 100%) | < 10 | Cc1csc(-c2ccccc2NC(=O)c2c[nH]c3ccccc3c2=O)c1 [Compound 151, N-[2-(4-methyl-2-thienyl)phenyl]-4-oxo-1H-quinoline-3-carboxamide] |
| + (<25%) | 25 to 60 | O=C(Nc1ccc2[nH]c(=O)oc2c1)c1c[nH]c2ccccc2c1=O [Compound 152, 4-oxo-N-(2-oxo-3H-benzooxazol-6-yl)-1H-quinoline-3-carboxamide] |
| ++ (between 25% to 100%) | < 10 | CCC(CC)(c1cc(F)c(NC(=O)c2cnc3ccccc3c2O)cc1O)C(C)(C)C [Compound 153, N-[4-(1,1-diethyl-2,2-dimethyl-propyl)-2-fluoro-5-hydroxy-phenyl]-4-hydroxy-quinoline-3-carboxamide] |
| + (<25%) | 25 to 60 | O=C(Nc1cc(C(F)(F)F)cc(C(F)(F)F)c1)c1c[nH]c2ccccc2c1=O [Compound 154, N-[3,5-bis(trifluoromethyl)phenyl]-4-oxo-1H-quinoline-3-carboxamide] |
| + (<25%) | 25 to 60 | O=C(Nc1ccccn1)c1c[nH]c2ccccc2c1=O [Compound 155, 4-oxo-N-(2-pyridyl)-1H-quinoline-3-carboxamide] |
| ++ (between 25% to 100%) | < 10 | O=C(Nc1ccccc1-c1ccccc1OC(F)(F)F)c1c[nH]c2ccccc2c1=O [Compound 156, 4-oxo-N-[2-[2-(trifluoromethoxy)phenyl]phenyl]-1H-quinoline-3-carboxamide] |

| % Activity | EC50 [µM] | SMILES |
| --- | --- | --- |
| ++ (between 25% to 100%) | < 10 | CCc1ccc(NC)cc1NC(=O)c1c[nH]c2ccccc2c1=O [Compound 157, N-(2-ethyl-5-methylamino-phenyl)-4-oxo-1H-quinoline-3-carboxamide] |
| ++ (between 25% to 100%) | < 10 | O=C(Nc1cc2[nH]ccc2cc1-c1ccccc1)c1c[nH]c2ccccc2c1=O [Compound 158, 4-Oxo-N-(5-phenyl-1H-indol-6-yl)-1H-quinoline-3-carboxamide] |
| ++ (between 25% to 100%) | 10 to 25 | COC(=O)NC1CCCc2ccc(NC(=O)c3c[nH]c4ccccc4c3=O)cc21 (stereo not drawn) [Compound 159, [7-[(4-Oxo-1H-quinolin-3-yl)carbonylamino]tetralin-1-yl]aminoformic acid methyl ester] |
| ++ (between 25% to 100%) | < 10 | CCCc1ccc(NC(=O)c2c[nH]c3ccccc3c2=O)cc1N [Compound 160, N-(3-amino-4-propyl-phenyl)-4-oxo-1H-quinoline-3-carboxamide] |
| ++ (between 25% to 100%) | < 10 | CCOCCOc1cc(NC(=O)c2c[nH]c3ccccc3c2=O)ccc1C(C)(C)C [Compound 161, N-[3-(2-ethoxyethoxy)-4-tert-butyl-phenyl]-4-oxo-1H-quinoline-3-carboxamide] |
| + (<25%) | 25 to 60 | COc1ccc(NC(=O)c2c[nH]c3ccccc3c2=O)cn1 [Compound 162, N-(6-methoxy-3-pyridyl)-4-oxo-1H-quinoline-3-carboxamide] |
| ++ (between 25% to 100%) | 10 to 25 | CCOc1ccccc1-c1ccc(CN)cc1NC(=O)c1c[nH]c2ccccc2c1=O [Compound 163, 4-Oxo-1,4-dihydro-quinoline-3-carboxylic acid (4-aminomethyl-2′-ethoxy-biphenyl-2-yl)-amide] |
| ++ (between 25% to 100%) | < 10 | O=C(Nc1cccc(C(F)(F)F)c1)c1c[nH]c2ccccc2c1=O [Compound 164, 4-oxo-N-[3-(trifluoromethyl)phenyl]-1H-quinoline-3-carboxamide] |
| + (<25%) | 25 to 60 | NS(=O)(=O)c1ccc(NC(=O)c2c[nH]c3ccccc3c2=O)cc1 [Compound 165, 4-oxo-N-(4-sulfamoylphenyl)-1H-quinoline-3-carboxamide] |
| ++ (between 25% to 100%) | < 10 | COC(=O)c1ccc(-c2ccccc2NC(=O)c2c[nH]c3ccccc3c2=O)cc1 [Compound 166, 4-[2-[(4-oxo-1H-quinolin-3-yl)carbonylamino]phenyl]benzoic acid methyl ester] |
| ++ (between 25% to 100%) | 10 to 25 | Cc1ccc(NC(=O)c2c[nH]c3ccccc3c2=O)cc1N [Compound 167, N-(3-amino-4-methyl-phenyl)-4-oxo-1H-quinoline-3-carboxamide] |
| + (<25%) | 25 to 60 | O=C(Nc1cccnc1)c1c[nH]c2ccccc2c1=O [Compound 168, 4-oxo-N-(3-pyridyl)-1H-quinoline-3-carboxamide] |
| ++ (between 25% to 100%) | 10 to 25 | Cn1ccc2ccc(NC(=O)c3c[nH]c4ccccc4c3=O)cc21 [Compound 169, N-(1-methyl-1H-indol-6-yl)-4-oxo-1H-quinoline-3-carboxamide] |
| + (<25%) | 25 to 60 | O=C(Nc1ccc(Cl)cn1)c1c[nH]c2ccccc2c1=O [Compound 170, N-(5-chloro-2-pyridyl)-4-oxo-1H-quinoline-3-carboxamide] |
| ++ (between 25% to 100%) | < 10 | O=C(Nc1ccccc1-c1cccc(Cl)c1Cl)c1c[nH]c2ccccc2c1=O [Compound 171, N-[2-(2,3-dichlorophenyl)phenyl]-4-oxo-1H-quinoline-3-carboxamide] |
| ++ (between 25% to 100%) | < 10 | O=C(Nc1ccccc1-c1cc2ccccc2s1)c1c[nH]c2ccccc2c1=O [Compound 172, N-(2-(benzo[b]thiophen-2-yl)phenyl)-1,4-dihydro-4-oxoquinoline-3-carboxamide] |
| + (<25%) | 25 to 60 | Cc1cccc(NC(=O)c2c[nH]c3ccccc3c2=O)n1 [Compound 173, N-(6-methyl-2-pyridyl)-4-oxo-1H-quinoline-3-carboxamide] |
| ++ (between 25% to 100%) | < 10 | CC(=O)c1ccc(-c2ccccc2NC(=O)c2c[nH]c3ccccc3c2=O)s1 [Compound 174, N-[2-(5-acetyl-2-thienyl)phenyl]-4-oxo-1H-quinoline-3-carboxamide] |
| ++ (between 25% to 100%) | 10 to 25 | CC(=O)N1CC2(CC2)c2ccc(NC(=O)c3c[nH]c4ccccc4c3=O)cc21 [Compound 175, 4-Oxo-1,4-dihydro-quinoline-3-carboxylic acid N-(1′-Acetyl-1′,2′-dihydrospiro[cyclopropane-1,3′-3H-indol]-6′-yl)-amide] |
